# Results: patent US6706716B2, “Compounds specific for the human α1d adrenergic receptor and uses thereof” (Synaptic Pharmaceutical Corporation, priority 1998, dated 2004)
# What was measured:
# [1] = tested on: urethane-anesthetized rats; assay: Blood pressure in urethane-anesthetized, normotensive rats; type: in vivo, rat
# Description: Rats were anesthetized with urethane and PE50 cannulae were placed in the femoral artery and vein for blood pressure monitoring and drug administration, respectively. After stabilization, rats were administered 200 μl saline vehicle or increasing doses of BMY 7378 or Compound 7 at 10 minutes intervals until the reduction in blood pressure reached a plateau. The 5-HT1A-selective antagonist WAY 100635 (1 mg/kg) was then administered and blood pressure monitored for an additional 10 minutes.
# [2] = molecular target: T1, human α1d adrenergic receptor (Homo sapiens, UniProt P25100); assay: Radioligand binding ([3H]prazosin) at cloned human α1d adrenergic receptor; settings: LM(tk-) cell membranes, read-out: Binding affinities (pKi) α1d (converted)
# T1 construct: The entire coding region. of α1d (1719 bp); expressed in transfected cells
# T1 sequence (P25100 1-572): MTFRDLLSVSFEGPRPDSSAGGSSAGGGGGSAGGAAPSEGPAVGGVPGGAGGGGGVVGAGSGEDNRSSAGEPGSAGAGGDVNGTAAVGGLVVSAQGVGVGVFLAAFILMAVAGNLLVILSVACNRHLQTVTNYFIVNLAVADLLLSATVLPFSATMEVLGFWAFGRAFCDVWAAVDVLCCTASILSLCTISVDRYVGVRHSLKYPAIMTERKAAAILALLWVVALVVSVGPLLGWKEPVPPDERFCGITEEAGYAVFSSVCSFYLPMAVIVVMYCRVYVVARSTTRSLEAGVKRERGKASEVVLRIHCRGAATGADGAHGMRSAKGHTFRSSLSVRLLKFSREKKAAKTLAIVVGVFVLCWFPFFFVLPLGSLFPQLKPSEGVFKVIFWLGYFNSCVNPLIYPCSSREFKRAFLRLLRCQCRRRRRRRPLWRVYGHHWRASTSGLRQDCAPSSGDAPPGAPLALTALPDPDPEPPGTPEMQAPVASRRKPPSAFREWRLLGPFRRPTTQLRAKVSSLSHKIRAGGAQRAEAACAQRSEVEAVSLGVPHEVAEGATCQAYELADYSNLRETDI
# Description: (§1) First, conditions were determined which allowed measurement of the specific binding of a compound known to bind to the receptor. Then, the binding of the known compound to the receptor in membrane preparations was evaluated in the presence of several different concentrations of the test compound.
# (§2) These cell lines were prepared by transfecting the cloned cDNA or cloned genomic DNA or constructs containing both genomic DNA and cDNA encoding the human receptors as described below.
# α1d Human Adrenergic Receptor: The entire coding region. of α1d (1719 bp), including 150 base pairs of 5′ untranslated sequence (5′ UT) and 300 bp of 3′ untranslated sequence (3′ UT), was cloned into the BamHI and ClaI sites of the polylinker-modified eukaryotic expression vector pCEXV-3, called EXJ.HR. The construct involved the ligation of partial overlapping human lymphocyte genomic and hippocampal cDNA clones: 5′ sequence were contained on a 1.2 kb SmaI-XhoI genomic fragment (the vector-derived BamHI site was used for subcloning instead of the internal insert-derived SmaI site) and 3′ sequences were contained on a 1.3 kb XhoI-ClaI cDNA fragment (the ClaI site was from the vector polylinker). Stable cell lines were obtained by cotransfection with the plasmid α1A/EXJ (expression vector containing the α1a receptor gene (old nomenclature)) and the plasmid pGCcos3neo (plasmid containing the aminoglycoside transferase gene) into LM(tk-) cells using the calcium phosphate technique. The cells were grown, in a controlled environment (37° C., 5% CO2), as monolayers in Dulbecco's modified Eagle's Medium (GIBCO, Grand Island, N.Y.) containing 25 mM glucose and supplemented with 10% bovine calf serum, 100 units/ml penicillin g, and 100 μg/ml streptomycin sulfate. Stable clones were then selected for resistance to the antibiotic G-418 (1 mg/ml), and membranes were harvested and assayed for their ability to bind [^3H]prazosin as described below (see Radioligand Binding assays).
# The cell line expressing the human α1d receptor used herein was designated L-α1A (old nomenclature) and was deposited with the American Type Culture Collection, 12301 Parklawn Drive, Rockville, Md. 20852, U.S.A. under the provisions of the Budapest Treaty for the International Recognition of the Deposit of Microorganisms for the Purposes of Patent Procedure. The cell line expressing the human α1d receptor, was accorded ATCC Accession No. CRL 11138, and was deposited on Sep. 25, 1992.
# (§3) Radioligand Binding Assays for α1 Human Adrenergic Receptors: Transfected cells from culture flasks were scraped into 5 ml of 5 mM Tris-HCl, 5 mM EDTA, pH 7.5, and lysed by sonication. The cell lysates were centrifuged at 1000 rpm for 5 min at 4° C., and the supernatant was centrifuged at 30,000×g for 20 min at 4° C. The pellet was suspended in 50 mM Tris-HCl, 1 mM MgCl2, and 0.1% ascorbic acid at pH 7.5. Binding of the α1, antagonist [^3H]prazosin (0.5 nM, specific activity 76.2 Ci/mmol) to membrane preparations of LM(tk-) cells was done in a final volume of 0.25 ml and incubated at 37° C. for 1 hour. Nonspecific binding was determined in the presence of 10 μM phentolamine. The reaction was stopped by filtration through GF/B filters using a cell harvester.
# [3] = molecular target: T2, human α1a adrenergic receptor (Homo sapiens, UniProt P35348); assay: Radioligand binding ([3H]prazosin) at cloned human α1a adrenergic receptor; settings: LM(tk-) cell membranes, read-out: Binding affinities (pKi) α1a (converted)
# T2 construct: The entire coding region of α1a (1401 bp); expressed in transfected cells
# T2 sequence (P35348 1-466): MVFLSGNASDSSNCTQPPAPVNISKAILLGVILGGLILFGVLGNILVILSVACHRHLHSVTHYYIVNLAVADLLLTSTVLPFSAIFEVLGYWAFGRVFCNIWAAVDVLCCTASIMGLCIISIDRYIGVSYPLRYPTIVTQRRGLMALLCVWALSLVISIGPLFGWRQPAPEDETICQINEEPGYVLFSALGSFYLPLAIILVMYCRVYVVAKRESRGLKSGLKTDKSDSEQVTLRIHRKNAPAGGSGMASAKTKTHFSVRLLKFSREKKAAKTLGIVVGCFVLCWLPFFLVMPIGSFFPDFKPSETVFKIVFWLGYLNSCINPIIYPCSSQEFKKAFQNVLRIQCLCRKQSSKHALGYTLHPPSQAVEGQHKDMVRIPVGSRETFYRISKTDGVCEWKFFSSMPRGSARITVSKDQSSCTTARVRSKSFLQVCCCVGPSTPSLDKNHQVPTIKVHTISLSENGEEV
# Description: as §1, §2
# The construct involved ligating three partial overlapping fragments: a 5′0.6 kb HincII genomic clone, a central 1.8 EcoRI hippocampal cDNA clone, and a 3′0.6 Kb PstI genomic clone. The hippocampal cDNA fragment overlaps with the 5′ and 3′ genomic clones so that the HincII and PstI sites at the 5′ and 3′ ends of the cDNA clone, respectively, were utilized for ligation. This full-length clone was cloned into the KpnI site of the expression vector, using the 5′ and 3′ KpnI sites of the fragment, derived from vector (i.e., pBluescript) and 3′-untranslated sequences, respectively. Stable cell lines were selected as described above. Membranes were harvested and assayed for their ability to bind [^3H]prazosin as described below (see Radioligand Binding assays).
# as §3
# [4] = molecular target: T3, human α1b adrenergic receptor (Homo sapiens, UniProt P35368); assay: Radioligand binding ([3H]prazosin) at cloned human α1b adrenergic receptor; settings: LM(tk-) cell membranes, read-out: Binding affinities (pKi) α1b (converted)
# T3 construct: The entire coding region of α1b (1563 bp); expressed in transfected cells
# T3 sequence (P35368 1-520): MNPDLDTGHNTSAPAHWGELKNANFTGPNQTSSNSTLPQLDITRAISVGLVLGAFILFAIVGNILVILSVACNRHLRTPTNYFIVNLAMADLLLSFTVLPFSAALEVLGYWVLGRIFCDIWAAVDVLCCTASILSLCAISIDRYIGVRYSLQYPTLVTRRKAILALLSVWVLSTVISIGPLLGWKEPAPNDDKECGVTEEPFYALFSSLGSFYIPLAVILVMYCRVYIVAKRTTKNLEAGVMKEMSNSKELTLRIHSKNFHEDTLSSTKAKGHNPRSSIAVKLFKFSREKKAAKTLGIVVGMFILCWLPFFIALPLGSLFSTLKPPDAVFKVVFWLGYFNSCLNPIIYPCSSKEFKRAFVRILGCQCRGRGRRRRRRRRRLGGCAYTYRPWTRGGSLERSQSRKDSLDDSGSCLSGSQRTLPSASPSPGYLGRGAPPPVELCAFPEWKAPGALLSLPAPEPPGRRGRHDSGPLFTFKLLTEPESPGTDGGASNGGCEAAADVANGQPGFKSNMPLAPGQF
# Description: as §1, §2
# α1b Human Adrenergic Receptor: The entire coding region of α1b (1563 bp), including 200 base pairs of 5′ untranslated sequence (5′ UT) and 600 bp of 3′ untranslated sequence (3′ UT), was cloned into the EcoRI site of pCEXV-3 eukaryotic expression vector. The construct involved ligating the full-length EcoRI brainstem cDNA fragment from λ ZapII into the expression vector. Stable cell lines were selected as described above. Membranes were harvested and assayed for their ability to bind [^3H]prazosin as described below (see Radioligand Binding assays). The cell line used herein was designated L-α1B and was deposited with the American Type Culture Collection, 12301 Parklawn Drive, Rockville, Md. 20852, U.S.A. under the provisions of the Budapest Treaty for the International Recognition of the Deposit of Microorganisms for the Purposes of Patent Procedure. The cell line L-α1B was accorded ATCC Accession No. CR 11139, on Sep. 29, 1992.
# as §3
SMILES,Ki [2],Ki [3],Ki [4],reversal of the blood pressure effect by WAY 100635 ([1]; 5-HT1A-selective antagonist WAY 100635 1 mg/kg given after plateau),"effect on systolic, diastolic and mean blood pressure ([1]; urethane-anesthetized rats, increasing i.v. doses at 10 min intervals)"
"COc1ccccc1N1CCN(CCN2C(=O)CC3(CCCC3)CC2=O)CC1 [BMY 7378, reference compound]",,,,reversed,dose-dependent reduction
"O=C1CC2(CCCC2)CC(=O)N1[C@H](Cc1ccccc1)CN1CCN(c2cc(F)c(F)cc2F)CC1 [Compound 17, 8-{(1R)-1-Benzyl-2-[4-(2,4,5-trifluorophenyl)piperazino]ethyl}-8-azaspiro[4.5]decane-7,9-dione]",79.4 nM,10 µM,,,
"O=C1CC2(CCCC2)CC(=O)N1CCN1CCN(c2ccccc2F)CC1 [Compound 20, 8-{2-[4-(2-Fluorophenyl)piperazin-1-yl]ethyl}-8-azaspiro[4.5]decane-7,9-dione]",,0.631 µM,63.1 nM,,

# Further lines, with some results ahead:
Ki [2],Ki [3],Ki [4],SMILES,reversal of the blood pressure effect by WAY 100635 ([1]; 5-HT1A-selective antagonist WAY 100635 1 mg/kg given after plateau),"effect on systolic, diastolic and mean blood pressure ([1]; urethane-anesthetized rats, increasing i.v. doses at 10 min intervals)"
1.26 nM,15.8 µM,,"C[C@H](CN1CCN(c2cc(F)c(F)cc2F)CC1)N1C(=O)CC2(CCCC2)CC1=O [Compound 9, 8-{(1R)-2-[4-(2,4,5-Trifluorophenyl)piperazin-1-yl]-1-methylethyl}-8-azaspiro[4.5]decane-7,9-dione]",,
126 nM,12.6 µM,,"C[C@@H](CN1CCN(c2cc(F)c(F)cc2F)CC1)N1C(=O)CC2(CCCC2)CC1=O [Compound 11, 8-{(1S)-2-[4-(2,4,5-Trifluorophenyl)piperazin-1-yl]-1-methylethyl}-8-azaspiro[4.5]decane-7,9-dione]",,
79.4 nM,7.94 µM,,"O=C1CC2(CCCC2)CC(=O)N1[C@@H](CN1CCN(c2cc(F)c(F)cc2F)CC1)c1ccccc1 [Compound 16, 8-{(1R)-1-Phenyl-2-[4-(2,4,5-trifluorophenyl)piperazino]ethyl}-8-azaspiro[4.5]decane-7,9-dione]",,
